Key:
human TLR7 = target: T1, human TLR7 (Homo sapiens, UniProt Q9NYK1); test: Human TLR7 agonist activity assay (HEK-Blue TLR7 SEAP reporter); format: cell-based; conditions: HEK-Blue TLR7 cells, 18 h treatment, average where assay performed multiple times, read-out: hTLR7 Agonism EC50
T1 construct: host or cells: HEK-Blue TLR7 cells (engineered human embryonic kidney cells)
T1 sequence (Q9NYK1 27-1049): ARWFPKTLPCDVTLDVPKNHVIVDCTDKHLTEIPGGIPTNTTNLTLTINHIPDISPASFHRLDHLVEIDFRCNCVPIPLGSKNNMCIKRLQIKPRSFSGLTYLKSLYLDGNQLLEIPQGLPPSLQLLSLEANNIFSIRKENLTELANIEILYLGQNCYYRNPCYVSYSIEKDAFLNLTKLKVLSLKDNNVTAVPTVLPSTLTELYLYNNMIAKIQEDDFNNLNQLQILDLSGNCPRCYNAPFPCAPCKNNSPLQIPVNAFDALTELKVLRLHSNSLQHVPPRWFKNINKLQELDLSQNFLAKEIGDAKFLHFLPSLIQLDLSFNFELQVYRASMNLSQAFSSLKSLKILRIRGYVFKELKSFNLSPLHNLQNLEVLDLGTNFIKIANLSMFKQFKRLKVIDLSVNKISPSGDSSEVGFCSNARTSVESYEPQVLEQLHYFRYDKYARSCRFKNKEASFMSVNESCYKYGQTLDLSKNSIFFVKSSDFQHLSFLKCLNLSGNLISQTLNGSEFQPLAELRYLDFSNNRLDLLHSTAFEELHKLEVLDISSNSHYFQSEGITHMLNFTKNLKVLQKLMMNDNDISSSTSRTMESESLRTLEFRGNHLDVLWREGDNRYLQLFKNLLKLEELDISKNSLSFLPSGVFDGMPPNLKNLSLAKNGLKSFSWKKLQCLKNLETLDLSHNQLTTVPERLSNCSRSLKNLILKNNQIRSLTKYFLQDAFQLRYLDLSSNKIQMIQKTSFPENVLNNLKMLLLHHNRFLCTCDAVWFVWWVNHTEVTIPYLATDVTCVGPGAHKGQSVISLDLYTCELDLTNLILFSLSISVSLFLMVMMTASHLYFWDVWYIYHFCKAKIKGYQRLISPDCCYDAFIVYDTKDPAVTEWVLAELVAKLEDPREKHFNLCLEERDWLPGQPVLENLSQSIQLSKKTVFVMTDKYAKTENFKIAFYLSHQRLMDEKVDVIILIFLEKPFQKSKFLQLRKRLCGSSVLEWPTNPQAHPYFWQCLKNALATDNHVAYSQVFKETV
Outline: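 HEK-Blue TLR7 cells (15,000/well) treated with compound for 18 h at 37 °C, 5% CO2. Secreted SEAP measured with Quanti-Blue, 30 min, OD 620 nm. EC50 taken as concentration giving half-maximal response between baseline and maximum.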

CD69 = test: Induction of CD69 in human whole blood; format: cell-based; conditions: Homo sapiens, 17 h, 100% set to 1 uM of resiquimod, average where assay performed multiple times, read-out: hWB CD69 EC50
Outline: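 Heparinized human whole blood treated with TLR7 agonist at final 1 uM and incubated 17 h at 37° C. CD69 surface staining alongside CD14 and CD19, then fix/lysis and flow cytometry on iQuePlus. Curves fitted with 1 uM resiquimod set as 100%.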

SMILES	EC50 (human TLR7) [nM]	EC50 (CD69) [nM]
COc1cc(C2CCN(CCO)CC2)cnc1Cn1ncc2nc(N)nc(NCc3cc(C)on3)c21 [Compound 144, 2-(4-{6-[(5-amino-7-{[(5-methyl-1,2-oxazol-3-yl)methyl]amino}-1H-pyrazolo[4,3-d]pyrimidin-1-yl)methyl]-5-methoxypyridin-3-yl}piperidin-1-yl)ethan-1-ol]	77	8.7
CCCCNc1nc(N)nc2cnn(Cc3ncc(C4CCN(CC(C)(C)O)CC4)cc3OC)c12 [Compound 146, 1-[4-(6-{[5-amino-7-(butylamino)-1H-pyrazolo[4,3-d]pyrimidin-1-yl]methyl}-5-methoxypyridin-3-yl)piperidin-1-yl]-2-methylpropan-2-ol]	28.5	25.8
CCC[C@@H](CCO)Nc1nc(N)nc2cnn(Cc3ncc(C4CCN(C5CC6(CCC6)C5)CC4)cc3OC)c12 [Compound 147, (3S)-3-[(5-amino-1-{[3-methoxy-5-(1-{spiro[3.3]heptan-2-yl}piperidin-4-yl)pyridin-2-yl]methyl}-1H-pyrazolo[4,3-d]pyrimidin-7-yl)amino]hexan-1-ol]	15.7	2.1
CCC[C@@H](CCO)Nc1nc(N)nc2cnn(Cc3ncc(C4CCN(C5CC6(COC6)C5)CC4)cc3OC)c12 [Compound 148, (3S)-3-[(5-amino-1-{[3-methoxy-5-(1-{2-oxaspiro[3.3]heptan-6-yl}piperidin-4-yl)pyridin-2-yl]methyl}-1H-pyrazolo[4,3-d]pyrimidin-7-yl)amino]hexan-1-ol]	14.1	0.49
CCCCNc1nc(N)nc2c(Cl)nn(Cc3ncc(C4CCN(C5CCOCC5)CC4)cc3OC)c12 [Compound 149, N7-butyl-3-chloro-1-({3-methoxy-5-[1-(oxan-4-yl)piperidin-4-yl]pyridin-2-yl}methyl)-1H-pyrazolo[4,3-d]pyrimidine-5,7-diamine]	869	590
CCC[C@@H](CCO)Nc1nc(N)nc2cnn(Cc3ncc(C4CCN(C5CC6(CNC6)C5)CC4)cc3OC)c12 [Compound 150, (3S)-3-[(5-amino-1-{[5-(1-{2-azaspiro[3.3]heptan-6-yl}piperidin-4-yl)-3-methoxypyridin-2-yl]methyl}-1H-pyrazolo[4,3-d]pyrimidin-7-yl)amino]hexan-1-ol]	88.8	44.1
CCC[C@@H](CCO)Nc1nc(N)nc2cnn(Cc3ncc(C4CCN(CC(C)(C)O)CC4)cc3OC)c12 [Compound 151, (3S)-3-{[5-amino-1-({5-[1-(2-hydroxy-2-methylpropyl)piperidin-4-yl]-3-methoxypyridin-2-yl}methyl)-1H-pyrazolo[4,3-d]pyrimidin-7-yl]amino}hexan-1-ol]	15.2	0.32
COc1cc(C2CCN(C3CC4(COC4)C3)CC2)cnc1Cn1ncc2nc(N)nc(NCC3CC4(CC4)C3)c21 (stereo not shown) [Compound 154, 1-{[3-methoxy-5-(1-{2-oxaspiro[3.3]heptan-6-yl}piperidin-4-yl)pyridin-2-yl]methyl}-N7-({spiro[2.3]hexan-5-yl}methyl)-1H-pyrazolo[4,3-d]pyrimidine-5,7-diamine]	34	7.1
COc1cc(C2CCN(C3CCOCC3)CC2)cnc1Cn1ncc2nc(N)nc(NCC3CC4(CC4)C3)c21 [Compound 157, 1-({3-methoxy-5-[1-(oxan-4-yl)piperidin-4-yl]pyridin-2-yl}methyl)-N7-({spiro[2.3]hexan-5-yl}methyl)-1H-pyrazolo[4,3-d]pyrimidine-5,7-diamine]	50.8	37
COc1cc(C2CCN(C3CNC3)CC2)cnc1Cn1ncc2nc(N)nc(NCC3CC4(CC4)C3)c21 [Compound 158, 1-({5-[1-(azetidin-3-yl)piperidin-4-yl]-3-methoxypyridin-2-yl}methyl)-N7-({spiro[2.3]hexan-5-yl}methyl)-1H-pyrazolo[4,3-d]pyrimidine-5,7-diamine]	224	69.4
COc1cc(C2CCN(C)CC2)cnc1Cn1ncc2nc(N)nc(NCC3CC4(CC4)C3)c21 [Compound 159, 1-{[3-methoxy-5-(1-methylpiperidin-4-yl)pyridin-2-yl]methyl}-N7-({spiro[2.3]hexan-5-yl}methyl)-1H-pyrazolo[4,3-d]pyrimidine-5,7-diamine]	62	4.1
CCCCNc1nc(N)nc2cnn(Cc3ccc(C4CCN(S(C)(=O)=O)CC4)cc3OC)c12 [Compound 161, N7-butyl-1-{[4-(1-methanesulfonylpiperidin-4-yl)-2-methoxyphenyl]methyl}-1H-pyrazolo[4,3-d]pyrimidine-5,7-diamine]	107	36
CCCCNc1nc(N)nc2cnn(Cc3ccc(C4CCN(C)CC4)cc3OC)c12 [Compound 163, N7-butyl-1-{[2-methoxy-4-(1-methylpiperidin-4-yl)phenyl]methyl}-1H-pyrazolo[4,3-d]pyrimidine-5,7-diamine]	5	0.065
CCC[C@@H](CCO)Nc1nc(N)nc2cnn(Cc3ncc(C4CCN(CCN(C)C)CC4)cc3OC)c12 [Compound 164, (3S)-3-({5-amino-1-[(5-{1-[2-(dimethylamino)ethyl]piperidin-4-yl}-3-methoxypyridin-2-yl)methyl]-1H-pyrazolo[4,3-d]pyrimidin-7-yl}amino)hexan-1-ol]	41	3.9
CCC[C@@H](CCO)Nc1nc(N)nc2cnn(Cc3cnc(C4CCNCC4)cc3OC)c12 [Compound 166, (3S)-3-[(5-amino-1-{[4-methoxy-6-(piperidin-4-yl)pyridin-3-yl]methyl}-1H-pyrazolo[4,3-d]pyrimidin-7-yl)amino]hexan-1-ol]	45.5	22.5
CCC[C@@H](CCO)Nc1nc(N)nc2cnn(Cc3cnc(C4CCN(C(C)C)CC4)cc3OC)c12 [Compound 167, (3S)-3-{[5-amino-1-({4-methoxy-6-[1-(propan-2-yl)piperidin-4-yl]pyridin-3-yl}methyl)-1H-pyrazolo[4,3-d]pyrimidin-7-yl]amino}hexan-1-ol]	9.4	0.17
CCC[C@@H](CCO)Nc1nc(N)nc2cnn(Cc3cnc(C4CCN(C5CCOCC5)CC4)cc3OC)c12 [Compound 168, (3S)-3-{[5-amino-1-({4-methoxy-6-[1-(oxan-4-yl)piperidin-4-yl]pyridin-3-yl}methyl)-1H-pyrazolo[4,3-d]pyrimidin-7-yl]amino}hexan-1-ol]	6.8	0.47
CCCCNc1nc(N)nc2cnn(Cc3ncc(C4=CC(C)(C)NC(C)(C)C4)cc3OC)c12 [Compound 169, N7-butyl-1-({5-methoxy-2′,2′,6′,6′-tetramethyl-1′,2′,3′,6′-tetrahydro-[3,4′-bipyridine]-6-yl}methyl)-1H-pyrazolo[4,3-d]pyrimidine-5,7-diamine]	496	121
CCCCNc1nc(N)nc2cnn(Cc3ncc(C4CC(C)(C)NC(C)(C)C4)cc3OC)c12 [Compound 170, N7-butyl-1-{[3-methoxy-5-(2,2,6,6-tetramethylpiperidin-4-yl)pyridin-2-yl]methyl}-1H-pyrazolo[4,3-d]pyrimidine-5,7-diamine]	209	42.6
CCC[C@@H](CCO)Nc1nc(N)nc2cnn(Cc3ncc(N4CCNCC4)cc3OC)c12 [Compound 171, (3S)-3-[(5-amino-1-{[3-methoxy-5-(piperazin-1-yl)pyridin-2-yl]methyl}-1H-pyrazolo[4,3-d]pyrimidin-7-yl)amino]hexan-1-ol]	309	55.5
